According to ChEMBL document CHEMBL1129209, “Molecular interactions of all possible regioisomers of synthetic myo-inositol phosphates with inositol 1,4,5-trisphosphate 3-kinase” (Bioorg Med Chem Lett, 1997):

test: Inhibition of Inositol 1,4,5-trisphosphate 3-kinase (IP3K) from rat brain

Row | Structure (SMILES) | IC50
1 | O=P(O)(O)O[C@H]1[C@H](O)[C@@H](OP(=O)(O)O)[C@H](OP(=O)(O)O)[C@@H](OP(=O)(O)O)[C@H]1O (stereo in doubt; form 2) | 56.7 µM
2 | O=P(O)(O)O[C@H]1[C@H](O)[C@@H](OP(=O)(O)O)[C@H](OP(=O)(O)O)[C@@H](OP(=O)(O)O)[C@H]1O (stereo in doubt; form 3) | 220 µM
3 | O=P(O)(O)O[C@H]1[C@H](O)[C@@H](OP(=O)(O)O)[C@H](OP(=O)(O)O)[C@@H](OP(=O)(O)O)[C@H]1O (stereo in doubt; form 4) | 65.2 µM

Further lines, results first:

Row | IC50 | Structure (SMILES)
4 | 3.55 µM | O=P(O)(O)O[C@@H]1[C@H](O)[C@H](O)[C@@H](OP(=O)(O)O)[C@H](OP(=O)(O)O)[C@H]1O (stereo in doubt; form 1) [INS(1,4,5)P3]
5 | 12.4 µM | O=P(O)(O)O[C@@H]1[C@H](O)[C@H](O)[C@@H](OP(=O)(O)O)[C@H](OP(=O)(O)O)[C@H]1O (stereo in doubt; form 2) [INS(1,4,5)P3]
6 | 42.1 µM | O=P(O)(O)O[C@H]1[C@H](O)[C@@H](OP(=O)(O)O)[C@H](OP(=O)(O)O)[C@@H](OP(=O)(O)O)[C@H]1O (stereo in doubt; form 1)
